Assays:
CaCo-2 cells = experiment: in vitro; type: in vitro ADME
Method: CaCo-2 cells grown in tissue culture flasks are trypsinized, suspended in medium, and the suspensions are applied to wells of a collagen-coated BioCoat Cell Environment in 24-well format (BD Biosciences) at 24,500 cells per well. The cells are allowed to grow and differentiate for three weeks, feeding at 2-day intervals.
For Apical to Basolateral (A->B) permeability, the test agent is added at 50 μM to the apical (A) side and amount of permeation is determined on the basolateral (B) side; for Basolateral to Apical (B>A) permeability, the test agent is added at 50 μM to the B side and the amount of permeation is determine on the A side. The A-side buffer contains 100 μM Lucifer yellow dye, in Transport Buffer (1.98 g/L glucose in 10 mM HEPES, 1× Hank's Balanced Salt Solution) pH 6.5, and the B-side buffer is Transport Buffer, pH 7.4. CaCo-2 cells are incubated with these buffers for 2 h., and the receiver side buffer is removed for analysis by liquid chromatography-mass spectrometry (LC/MS/MS).
Additionally, several control compounds are tested in the identical assay.
To verify that CaCo-2 cell monolayers are properly formed, aliquots of the cell buffers are analyzed by fluorescence to determine the transport of the impermeable dye Lucifer Yellow.
Data are expressed as permeability (Papp): […]
where dQ/dt is the rate of permeation, C0 is the initial concentration of test agent, and A is the area of the monolayer.
In bidirectional permeability studies, the asymmetry index (AI) or efflux ratio is also calculated:
An AI>1 indicated a potential substrate for PGP or other active transporters.
Samples are analyzed by LC/MS/MS using either an Agilent 6410 mass spectrometer coupled with an Agilent 1200 high performance liquid chromatography (HPLC) and a CTC PAL chilled autosampler, all controlled by MassHunter software (Agilent), or an ABI2000 mass spectrometer coupled with an Agilent 1100 HPLC and a CTC PAL chilled autosampler, all controlled by Analyst software (ABI). After separation on a C18 reverse phase HPLC column (Agilent, Waters, or equivalent) using an acetonitrile-water gradient system, peaks are analyzed by mass spectrometry (MS) using electrospray ionization (ESI) in multiple reaction monitoring (MRM) mode.
The signal is optimized for each compound by ESI positive or negative ionization mode. A MS2 selected ion monitoring (SIM) scan is used to optimize the precursor ion and a product ion analysis is used to identify the best fragment for analysis and to optimize the collision energy.

human SMN protein = experiment: Western blot of SMN protein in SMA patient fibroblasts (3813); type: cell-based; conditions: SMA patient cells (3813), 0.1-10 μM, FIG. 2
Method: Type I spinal muscular atrophy (SMA)-affected human primary fibroblasts (#GM03813) and carrier parents (#GM03814, parent and #GM03815, […]) are obtained live with low passage number from Coriell Cell Repositories. […] For detection of SMN protein in patient fibroblasts, 8,000 cells per cm^2 are plated 24 hours prior to drug addition. Fresh media and compound are added every 24 hours. After 72 hours, cells are harvested, washed with cold PBS, and lysed. Samples are subjected to polyacrylamide gel electrophoresis (PAGE). It is determined that 10 μg total protein per lane is within the linear range for immunoblot detection of SMN and alpha-tubulin. Western blots of the gel are probed for SMN with the 4B7 mouse monoclonal antibody (from the lab of Christian Lorson). A goat anti-mouse antibody (Santa Cruz Biotechnology/#sc-2005) conjugated to horseradish peroxidase (HRP) is used as the secondary antibody. Quantification of protein is performed by detecting chemiluminescence with a Fujifilm LAS-4000 Multifunctional Imaging System. […] We incubated a fibroblast cell line from a type I SMA patient (3813 cell line) with different doses of analogues and assessed the SMN protein level by quantitative western blotting (FIG. 4). We observed that analogue 8 m at concentration of 37 nanomolar increased the SMN protein level by 2-3 fold. […] This could be due with the intrinsic mechanism of action or to other causes, such us concentration dependent compound solubility.

In the case of `NC(=O)C1CCN(c2nc(-c3ccc(Br)cc3)cs2)CC1` [MLS000698854], the “Caco-2 permeability (in words)” value (CaCo-2 cells) is reported as “highly permeable”, the “Pgp substrate (in words)” value (CaCo-2 cells) is reported as “no indication of being a Pgp substrate” and the “mean A->B Papp” value (CaCo-2 cells) is reported as 32.6 10^−6 cm s^−1. The “mean B->A Papp” value (CaCo-2 cells) was 12.0 10^−6 cm s^−1 and the “SMN protein by Western blot (in words)” value (human SMN protein) was “concentration-dependent increase in SMN protein”.

Reference: patent publication US20130096160A1, “ARYLTHIAZOLYL PIPERIDINES AND RELATED COMPOUNDS AS MODULATORS OF SURVIVAL MOTOR NEURON (SMN) PROTEIN PRODUCTION” (Secretary, Department of Health and Human Services, priority 2010, published 2013)
